In publication PMC12317361, “Pharmacological Inhibition of c‐Jun N‐Terminal Kinase Activity Exacerbates Liver Damage in Schistosoma mansoni Infected Mice” (Liver International, 2025) one finds Kd data, which are given here for one molecule.

The target in the assay is SmJNK (S. mansoni c-Jun N-terminal kinase) (Schistosoma mansoni, UniProt A0A3Q0KT26). Kind of assay: cellular thermal shift assay (CETSA), isothermal dose-response fingerprint in SmJNK-expressing Sf21 cells. In kind it is cell-based.
Chain of SmJNK (S. mansoni c-Jun N-terminal kinase) (A0A3Q0KT26 entry or part of it): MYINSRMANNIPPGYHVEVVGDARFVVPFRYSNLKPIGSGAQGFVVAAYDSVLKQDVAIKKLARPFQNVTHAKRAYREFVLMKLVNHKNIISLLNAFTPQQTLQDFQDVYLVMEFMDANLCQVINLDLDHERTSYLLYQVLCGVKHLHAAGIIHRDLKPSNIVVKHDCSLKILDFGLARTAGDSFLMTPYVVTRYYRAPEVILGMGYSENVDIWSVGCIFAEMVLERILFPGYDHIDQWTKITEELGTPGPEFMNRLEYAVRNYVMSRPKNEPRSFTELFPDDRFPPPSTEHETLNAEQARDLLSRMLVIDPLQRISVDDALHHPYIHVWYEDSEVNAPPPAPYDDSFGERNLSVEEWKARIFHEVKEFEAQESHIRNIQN

As a reminder, the Kd is the equilibrium constant for the complex coming apart. With `Oc1c2ccccc2c2c3c(cccc13)N=N2` [SP600125], the Kd came to 650 nM.
